Activity calls are given as the source filed them.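 Rule for the calls: active = IC50 at or below about 50119 nM, measured in restricted growth medium; inactive = the rest.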
Test system: HepG2 viability, ATP luminescence, 48 h
Experiment: viability loss in human liver HepG2 cells – cytotoxicity control, dose response (AID 2060596)

Row | SMILES | IC50
1 | O=C(CCN=C1NS(=O)(=O)c2ccccc21)Nc1ccc(S(=O)(=O)N2CCCC2)cc1 | > 100 µM (inactive)
2 | Cn1cccc1C1CCCN1CC(=O)Nc1ccc(S(=O)(=O)N2CCOCC2)cc1 (stereo not drawn) | > 100 µM (inactive)
3 | O=C(/C=C/c1n[nH]c2ccccc12)Nc1ccc(C(=O)NCCN2CCOCC2)cc1 | > 100 µM (inactive)
4 | Cc1cc(-c2cnc(N3CCn4c(nnc4C4CC4)C3)nc2-c2ccncc2)on1 | > 100 µM (inactive)
5 | Cc1cc(Cl)ccc1OCC(=O)N1CCc2c(cnc(C)c2CNC(=O)c2ccc(=O)[nH]n2)C1 | > 100 µM (inactive)
6 | COc1ccc2oc(C(=O)NC3CCC(Oc4ncccn4)CC3)cc2c1 (stereo not drawn) | > 100 µM (inactive)
7 | O=C(CCCc1ncc(-c2ccccc2)o1)N1CCOC2CCCC21 (stereo not drawn) | > 100 µM (inactive)
8 | O=C(Nc1nnc(-c2ccccc2)s1)N1CCCN(c2ncccn2)CC1 | > 100 µM (inactive)
9 | CC(C)Oc1ccc(-c2nnc(Oc3cccc4c3CCN(CCC(N)=O)CC4)s2)cc1C#N | 20 µM
10 | NC(=O)CC1CCN(C(=O)c2sc3sccc3c2Cl)CC1 | > 100 µM (inactive)
11 | N#Cc1cccc(NC(=O)CNc2ccccc2C(=O)NC2CC2)c1 | > 100 µM (inactive)
12 | Cc1ccc2nc(CCNC(=O)CCS(=O)(=O)c3ccc4c(c3)CC(=O)N4C)[nH]c2c1 | > 100 µM (inactive)
13 | CCN(C(=O)C=Cc1ccc(S(=O)(=O)N2CCc3ccccc32)cc1)C1CCS(=O)(=O)C1 (stereo not drawn) | > 100 µM (inactive)
14 | CN(C(=O)C[C@@H]1CCN(C(=O)C2CC2)C1)c1ccc(-c2ccc(C#N)cc2)cc1 | > 100 µM (inactive)
15 | O=C1CCCN1c1ccc(S(=O)(=O)N2CCN(S(=O)(=O)c3ccccc3)CC2)cc1 | > 100 µM (inactive)
16 | O=C(COc1ccc(Br)cc1F)N1CCN(c2cnccn2)CC1 | > 100 µM (inactive)
17 | COc1ccc(N2CCN(C(=O)c3csc(Nc4ccccc4S(C)(=O)=O)n3)CC2)nc1 | > 100 µM (inactive)

Row | SMILES | IC50
18 | O=C(/C=C/c1n[nH]c2ccccc12)N1CCN(c2cnccn2)CC1 | > 100 µM (inactive)
19 | CCCOc1cncc(S(=O)(=O)c2ccc3c(c2)CCN(C2CCC2)CC3)c1 | 50.1 µM
20 | COc1ccc(NC(=O)c2ccc3c(=O)n(Cc4ccccn4)cnc3c2)cc1N1CCN(C)CC1 | > 100 µM (inactive)
21 | O=C(NCCCN1CCc2ccccc21)c1ccc2c(=O)n(Cc3ccccn3)cnc2c1 | > 100 µM (inactive)
22 | O=C(CCCc1c[nH]c2ccccc12)N1CCN(c2ccc(N3CCOCC3)nn2)CC1 | > 100 µM (inactive)
23 | COc1ccc(-c2ccc(CNC(=O)c3cc(C(=O)NC(C)C)ccc3Cl)cc2)cn1 | > 100 µM (inactive)
24 | O=C(Nc1cccnc1)C1CCN(c2ccc(-c3ccco3)nn2)CC1 | > 100 µM (inactive)
25 | N#Cc1c(N)n[nH]c1CCCNC(=O)c1ccc(Cl)c(S(=O)(=O)N2CCCC2)c1 | > 100 µM (inactive)
26 | COc1ccc(C(=O)N2CCN(c3ccc(-n4cccn4)nn3)CC2)cc1OC | > 100 µM (inactive)
27 | O=C(c1cc2ccccc2[nH]1)N1CCC2(CC(Nc3ccncn3)C2)C1 (stereo not drawn) | 63.1 µM
28 | Cc1cccc(-c2nn(Cc3ccc(C(=O)NCCCO)cc3)c(=O)cc2N2CCCC(CO)C2)c1 (stereo not drawn) | > 100 µM (inactive)
29 | CCN(CC)c1ccc(C(=O)COc2ccc3c(c2)CCNCC3)cc1 | 31.6 µM
30 | Cc1nn(C2CCS(=O)(=O)C2)c(C)c1CN(C)C(=O)CN1C(=O)NC2(CCCCC2C)C1=O (stereo not drawn) | 79.4 µM
31 | O=C1CSc2ccc(C(=O)Nc3ccc(-c4nnc5n4CCCCC5)cc3)cc2N1 | > 100 µM (inactive)
32 | O=C(Nc1ccc(N2CCCC2)nc1)N1CCN(c2cnccn2)CC1 | > 100 µM (inactive)
33 | O=C(CCn1nnc2cc(S(=O)(=O)N3CCCC3)ccc21)N1CCN(c2ccccn2)CC1 | > 100 µM (inactive)

From PubChem BioAssay AID2060596 (Global Health Medicines R&D, GSK, 2025)
